Assay results: patent publication US20200239398A1, “METHYLENE-CYCLOALKYLACETATE DERIVATIVES AND THEIR USE IN TREATMENT OF NEUROTROPIC CONDITIONS” (Yissum Research Development Company of The Hebrew …, priority 2018, published 2020)
Read-outs that look alike come from different tables or passages of the source.

How the values were obtained:
[1] = biological target: T1, N-methyl-D-aspartate (NMDA) Glutamate Receptor 1A/2B (NMDAR (1A/2B)) (Homo sapiens, UniProt Q05586+Q13224); assay: SAFETYscan NMDAR (1A/2B) Ion channel; format: cell-based; conditions: Blocker mode; 10 μM HU-MCA-13; read-out: Maximal Response
T1 construct: DiscoverX (SAFETYscan contract panel)

[2] = biological target: T2, Cyclooxygenase 1 (COX 1) (Homo sapiens, UniProt P23219); assay: SAFETYscan COX 1 Enzymatic; format: biochemical; conditions: Inhibitor mode; 10 μM HU-MCA-13; read-out: Maximal Response
T2 construct: DiscoverX (SAFETYscan contract panel)
T2 sequence (P23219 24-599): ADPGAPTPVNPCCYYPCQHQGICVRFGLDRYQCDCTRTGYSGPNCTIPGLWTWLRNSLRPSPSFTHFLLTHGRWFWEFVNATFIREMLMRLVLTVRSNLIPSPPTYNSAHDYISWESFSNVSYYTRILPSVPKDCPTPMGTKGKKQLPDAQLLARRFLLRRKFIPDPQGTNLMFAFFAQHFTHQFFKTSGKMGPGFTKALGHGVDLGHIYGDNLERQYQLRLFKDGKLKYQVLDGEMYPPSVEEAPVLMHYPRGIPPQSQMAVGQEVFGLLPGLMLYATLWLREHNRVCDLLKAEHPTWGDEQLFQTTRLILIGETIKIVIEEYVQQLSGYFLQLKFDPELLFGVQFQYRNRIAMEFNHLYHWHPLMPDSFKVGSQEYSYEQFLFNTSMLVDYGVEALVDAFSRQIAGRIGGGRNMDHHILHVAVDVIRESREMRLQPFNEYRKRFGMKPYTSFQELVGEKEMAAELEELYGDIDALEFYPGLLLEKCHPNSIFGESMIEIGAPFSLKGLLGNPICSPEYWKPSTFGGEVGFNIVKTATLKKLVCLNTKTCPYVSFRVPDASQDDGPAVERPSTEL

[3] = biological target: 5-Hydroxytryptamine (Serotonin) Receptor 2A (HTR2A) (Homo sapiens, UniProt P28223); assay: SAFETYscan HTR2A Calcium Flux; format: cell-based; conditions: 10 μM HU-MCA-13, read-out: Maximal Response
Chain of 5-Hydroxytryptamine (Serotonin) Receptor 2A (HTR2A) (P28223 whole entry): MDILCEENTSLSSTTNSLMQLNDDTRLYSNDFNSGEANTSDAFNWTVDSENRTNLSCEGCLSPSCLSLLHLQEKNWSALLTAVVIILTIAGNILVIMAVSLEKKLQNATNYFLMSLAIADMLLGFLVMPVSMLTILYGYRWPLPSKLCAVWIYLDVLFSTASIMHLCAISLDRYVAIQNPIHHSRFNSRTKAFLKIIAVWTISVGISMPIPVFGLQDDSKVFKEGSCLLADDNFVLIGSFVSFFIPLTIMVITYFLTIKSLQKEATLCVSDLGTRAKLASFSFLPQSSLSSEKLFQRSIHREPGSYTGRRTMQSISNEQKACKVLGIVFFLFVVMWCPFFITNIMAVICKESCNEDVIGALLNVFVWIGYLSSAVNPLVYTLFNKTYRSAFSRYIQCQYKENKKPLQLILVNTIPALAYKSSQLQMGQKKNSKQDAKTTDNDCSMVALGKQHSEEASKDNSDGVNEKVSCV

[4] = system: dorsal root ganglion (DRG) sensory neurons; assay: Neurite outgrowth in dorsal root ganglion (DRG) explants; format: cell-based, mice
Description: To perform these experiments, about 10 dorsal root ganglia (DRGs) were excised under sterile conditions and transferred to 0.25% Type IV collagenase (Sigma-Aldrich-Merck) in Dulbecco's Modified Eagle Medium (DMEM) at 37° C. for 45 min, followed by a 20-min incubation with 0.025% trypsin in DMEM, to digest the associated connective tissue surrounding the neurons. After plating the ganglia onto collagen (50 μg/ml)/laminin mixture (5 μg/ml)-coated tissue culture wells for 24 h, DRG neurons were cultured for additional 1-7 days in fresh Neurobasal A/B27 containing either 50 ng/ml NGF (positive control), blank medium (DMSO 1%) control and HU-MCA-13. The cultures were photographed; thereafter the ganglia were immune-stained for neuronal tubulin and again photographed using a fluorescent microscope. Image analysis was performed by a researcher blinded to the experimental conditions. Neurite outgrowth distance measured in micrometers, was quantified as for PC12 cultures.

[5] = biological target: T3, Vascular endothelial growth factor receptor 2 (KDR tyrosine kinase) (VEGFR2) (Homo sapiens, UniProt P35968); assay: SAFETYscan VEGFR2 kinase Binding; conditions: Inhibitor mode, 10 μM HU-MCA-13, read-out: Maximal Response
T3 construct: DiscoverX (KINOMEscan)

[6] = biological target: 5-Hydroxytryptamine (Serotonin) Receptor 1B (HTR1B) (Homo sapiens, UniProt P28222); assay: SAFETYscan HTR1B cAMP; format: cell-based; conditions: 10 μM HU-MCA-13, read-out: Maximal Response
Chain of 5-Hydroxytryptamine (Serotonin) Receptor 1B (HTR1B) (P28222 whole entry): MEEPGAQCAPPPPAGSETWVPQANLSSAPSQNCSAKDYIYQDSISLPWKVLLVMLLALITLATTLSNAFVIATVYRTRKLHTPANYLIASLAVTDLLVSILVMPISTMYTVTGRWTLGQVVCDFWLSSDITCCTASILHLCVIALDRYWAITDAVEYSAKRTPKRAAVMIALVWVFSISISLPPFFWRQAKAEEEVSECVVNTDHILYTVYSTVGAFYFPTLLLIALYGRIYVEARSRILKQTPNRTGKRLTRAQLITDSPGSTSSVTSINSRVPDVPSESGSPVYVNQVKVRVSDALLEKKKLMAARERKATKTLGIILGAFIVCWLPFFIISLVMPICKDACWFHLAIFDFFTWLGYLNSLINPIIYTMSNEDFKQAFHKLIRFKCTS

[7] = biological target: Opioid Receptor Delta 1 (OPRD1) (Homo sapiens, UniProt P41143); assay: SAFETYscan OPRD1 cAMP; format: cell-based; conditions: 10 μM HU-MCA-13, read-out: Maximal Response
Chain of Opioid Receptor Delta 1 (OPRD1) (P41143 whole entry): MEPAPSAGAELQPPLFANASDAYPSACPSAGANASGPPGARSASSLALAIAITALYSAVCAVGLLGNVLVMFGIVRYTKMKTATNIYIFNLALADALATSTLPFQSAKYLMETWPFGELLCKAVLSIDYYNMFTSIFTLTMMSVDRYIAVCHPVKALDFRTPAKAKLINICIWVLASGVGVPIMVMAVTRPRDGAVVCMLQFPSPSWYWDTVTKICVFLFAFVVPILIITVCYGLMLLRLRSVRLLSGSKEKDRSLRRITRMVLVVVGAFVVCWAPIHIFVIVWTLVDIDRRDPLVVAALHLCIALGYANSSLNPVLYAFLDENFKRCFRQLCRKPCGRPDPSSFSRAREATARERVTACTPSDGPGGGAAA

[8] = biological target: Dopamine Receptor D1 (DRD1) (Homo sapiens, UniProt P21728); assay: SAFETYscan DRD1 cAMP; format: cell-based; conditions: 10 μM HU-MCA-13
Chain of Dopamine Receptor D1 (DRD1) (P21728 whole entry): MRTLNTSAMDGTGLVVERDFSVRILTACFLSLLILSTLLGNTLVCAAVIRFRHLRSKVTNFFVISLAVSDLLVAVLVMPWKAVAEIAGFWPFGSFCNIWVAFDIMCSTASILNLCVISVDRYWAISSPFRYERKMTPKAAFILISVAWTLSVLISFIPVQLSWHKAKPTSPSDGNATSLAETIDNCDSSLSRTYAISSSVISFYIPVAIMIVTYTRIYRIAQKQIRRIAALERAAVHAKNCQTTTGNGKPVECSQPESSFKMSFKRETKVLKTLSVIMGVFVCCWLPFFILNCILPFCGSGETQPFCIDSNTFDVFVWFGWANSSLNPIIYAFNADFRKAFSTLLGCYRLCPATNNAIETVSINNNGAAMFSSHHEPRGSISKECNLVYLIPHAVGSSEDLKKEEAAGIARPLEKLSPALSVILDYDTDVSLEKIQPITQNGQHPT

[9] = biological target: Histamine Receptor H1 (HRH1) (Homo sapiens, UniProt P35367); assay: SAFETYscan HRH1 Calcium Flux; format: cell-based; conditions: 10 μM HU-MCA-13, read-out: Maximal Response
Chain of Histamine Receptor H1 (HRH1) (P35367 whole entry): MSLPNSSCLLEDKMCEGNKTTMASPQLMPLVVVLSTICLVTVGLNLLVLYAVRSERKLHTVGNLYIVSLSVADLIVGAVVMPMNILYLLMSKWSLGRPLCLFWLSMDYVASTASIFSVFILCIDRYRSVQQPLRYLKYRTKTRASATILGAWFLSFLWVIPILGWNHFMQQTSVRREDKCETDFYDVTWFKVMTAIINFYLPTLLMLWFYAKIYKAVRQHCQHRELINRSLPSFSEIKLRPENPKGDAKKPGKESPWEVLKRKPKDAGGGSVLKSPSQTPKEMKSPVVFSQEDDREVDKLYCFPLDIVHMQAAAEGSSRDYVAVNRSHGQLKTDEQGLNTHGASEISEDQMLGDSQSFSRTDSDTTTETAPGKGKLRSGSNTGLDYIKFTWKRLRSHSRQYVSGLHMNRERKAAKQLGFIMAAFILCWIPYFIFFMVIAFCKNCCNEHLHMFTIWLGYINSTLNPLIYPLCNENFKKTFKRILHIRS

[10] = biological target: Arginine Vasopressin Receptor 1A (AVPR1A) (Homo sapiens, UniProt P37288); assay: SAFETYscan AVPR1A Calcium Flux; format: cell-based; conditions: 10 μM HU-MCA-13, read-out: Maximal Response
Chain of Arginine Vasopressin Receptor 1A (AVPR1A) (P37288 whole entry): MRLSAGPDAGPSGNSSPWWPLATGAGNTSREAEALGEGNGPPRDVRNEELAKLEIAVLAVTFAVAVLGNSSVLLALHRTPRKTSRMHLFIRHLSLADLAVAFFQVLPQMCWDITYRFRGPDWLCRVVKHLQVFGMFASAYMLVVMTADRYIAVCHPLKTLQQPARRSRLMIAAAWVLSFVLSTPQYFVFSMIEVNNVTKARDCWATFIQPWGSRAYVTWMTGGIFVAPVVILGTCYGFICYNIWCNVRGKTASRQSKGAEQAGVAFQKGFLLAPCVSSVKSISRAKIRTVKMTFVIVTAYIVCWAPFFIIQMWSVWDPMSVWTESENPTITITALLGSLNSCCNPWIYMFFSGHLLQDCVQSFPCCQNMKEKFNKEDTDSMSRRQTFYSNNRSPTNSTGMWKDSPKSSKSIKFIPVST

[11] = system: spinal cord motor neurons; assay: Neurite outgrowth in adult rat spinal cord primary cultures; format: cell-based; conditions: 10 μM HU-MCA-13 for 7 days
Description: To study the effect of HU-MCA-13 on adult rat spinal cord primary cultures in vitro, a purification procedure was developed that yields highly enriched motor neurons cultures. Spinal cord motor neuron cultures are an important tool for the study of mechanisms involved in motor neuron survival, degeneration and regeneration, motor neuron disorders such as amyotrophic lateral sclerosis or spinal muscular atrophy as well as in spinal cord injury. This bioassay was performed using vehicle (1% DMSO) DMEM negative control and 10 μM HU-MCA-13, tested compound. Briefly, dissected pieces of adult rat spinal cord tissue were maintained in phosphate-buffered saline (PBS) without Ca^2+ and Mg^2+ and pooled together and transferred to an enzymatic dissociation media containing 20 IU/ml papain in Earle's balanced salt solution (Worthington Biochemical, Freehold, N.J.) and incubated for 30 min at 37° C. After enzymatic dissociation, the papain solution was aspirated and the tissue was mechanically triturated with a fire-polished Pasteur pipette in complete media [Neurobasal Medium with B-27 supplement (Gibco, Grand Island, N.Y.), 100 IU/ml penicillin, […], 3.3 μg/ml aphidicolin, 0.5 mM glutamate] containing 2000 IU/ml DNase and 10-mg/ml protease inhibitors. Single-cell suspensions in complete media was plated on pre-coated collagen IV/laminin mixture-coated 96-well plates (Becton-Dickinson, Bedford, Mass.) at a density of 1.0×10^4 cells/well. The spinal cord motor neurons (red arrows) and accessory Schwann cells (orange) were maintained for one day in culture and then exposed to 1% DMSO-DMEM negative control or 10 μM HU-MCA-13 for 7 days. The cultures were photographed, and Image analysis was performed. Neurite outgrowth was measured and quantified as for PC12 cultures, focusing on two parameters: a. SUM-total area covered by neurite outgrowths; b. mean length of a neurite (microns).

[12] = biological target: Muscarinic acetylcholine Receptor M2 (CHRM2) (Homo sapiens, UniProt P08172); assay: SAFETYscan CHRM2 cAMP; format: cell-based; conditions: 10 μM HU-MCA-13, read-out: Maximal Response
Chain of Muscarinic acetylcholine Receptor M2 (CHRM2) (P08172 whole entry): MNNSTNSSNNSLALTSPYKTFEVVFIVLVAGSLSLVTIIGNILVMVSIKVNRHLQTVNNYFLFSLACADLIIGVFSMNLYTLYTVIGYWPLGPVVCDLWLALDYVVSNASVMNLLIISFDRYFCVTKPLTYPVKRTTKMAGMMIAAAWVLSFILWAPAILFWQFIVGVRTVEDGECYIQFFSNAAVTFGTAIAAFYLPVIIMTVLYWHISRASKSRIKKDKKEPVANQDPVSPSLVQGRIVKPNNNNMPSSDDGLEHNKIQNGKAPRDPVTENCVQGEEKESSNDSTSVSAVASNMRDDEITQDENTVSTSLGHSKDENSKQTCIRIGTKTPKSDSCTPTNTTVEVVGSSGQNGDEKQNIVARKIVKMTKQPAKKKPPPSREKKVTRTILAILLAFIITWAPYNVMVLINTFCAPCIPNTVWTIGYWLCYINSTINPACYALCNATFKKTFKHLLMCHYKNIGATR

[13] = biological target: Cholecystokinin Receptor A (CCKAR) (Homo sapiens, UniProt P32238); assay: SAFETYscan CCKAR Calcium Flux; format: cell-based; conditions: 10 μM HU-MCA-13, read-out: Maximal Response
Chain of Cholecystokinin Receptor A (CCKAR) (P32238 whole entry): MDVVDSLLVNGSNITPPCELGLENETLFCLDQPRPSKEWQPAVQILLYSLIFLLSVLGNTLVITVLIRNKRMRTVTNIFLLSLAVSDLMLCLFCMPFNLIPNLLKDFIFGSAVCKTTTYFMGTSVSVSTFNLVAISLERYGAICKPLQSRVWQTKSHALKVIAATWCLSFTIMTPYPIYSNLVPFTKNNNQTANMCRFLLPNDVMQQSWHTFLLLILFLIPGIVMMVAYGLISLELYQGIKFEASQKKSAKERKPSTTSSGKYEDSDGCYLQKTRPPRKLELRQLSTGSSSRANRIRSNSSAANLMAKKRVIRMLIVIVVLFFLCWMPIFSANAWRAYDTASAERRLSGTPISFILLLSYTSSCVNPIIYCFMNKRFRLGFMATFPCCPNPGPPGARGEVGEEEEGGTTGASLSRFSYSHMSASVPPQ

[14] = biological target: T4, Nuclear Hormone Glucocorticoid Receptor (GR) (Homo sapiens, UniProt P04150); assay: SAFETYscan GR Nuclear Hormone Receptor Translocation; format: cell-based; conditions: 10 μM HU-MCA-13, read-out: Maximal Response
T4 construct: DiscoverX (SAFETYscan contract panel)
T4 sequence (P04150 whole entry): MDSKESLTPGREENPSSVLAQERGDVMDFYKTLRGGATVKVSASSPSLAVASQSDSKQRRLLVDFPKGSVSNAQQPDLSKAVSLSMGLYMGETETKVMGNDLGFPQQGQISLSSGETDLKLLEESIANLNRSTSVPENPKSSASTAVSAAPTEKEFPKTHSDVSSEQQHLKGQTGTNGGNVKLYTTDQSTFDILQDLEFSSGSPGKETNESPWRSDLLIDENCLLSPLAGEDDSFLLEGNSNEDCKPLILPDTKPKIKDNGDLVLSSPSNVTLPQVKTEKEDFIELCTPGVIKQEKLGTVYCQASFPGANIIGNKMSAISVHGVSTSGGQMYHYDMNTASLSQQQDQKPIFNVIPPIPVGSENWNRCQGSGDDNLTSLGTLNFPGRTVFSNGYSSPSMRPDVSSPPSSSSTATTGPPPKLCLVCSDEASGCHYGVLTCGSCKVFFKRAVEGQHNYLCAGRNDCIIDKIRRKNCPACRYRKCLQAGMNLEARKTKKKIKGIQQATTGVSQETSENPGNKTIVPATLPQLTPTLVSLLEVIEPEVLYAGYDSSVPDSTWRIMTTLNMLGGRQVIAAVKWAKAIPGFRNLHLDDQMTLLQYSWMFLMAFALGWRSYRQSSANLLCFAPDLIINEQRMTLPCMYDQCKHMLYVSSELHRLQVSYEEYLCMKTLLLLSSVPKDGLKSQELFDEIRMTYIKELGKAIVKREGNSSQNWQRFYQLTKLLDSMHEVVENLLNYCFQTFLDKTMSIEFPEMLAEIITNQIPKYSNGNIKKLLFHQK

[15] = biological target: T5, cAMP-specific 3′,5′-cyclic phosphodiesterase 4D2 (PDE4D2) (Homo sapiens, UniProt Q08499); assay: SAFETYscan PDE4D2 Enzymatic; format: biochemical; conditions: Inhibitor mode; 10 μM HU-MCA-13; read-out: Maximal Response
T5 construct: DiscoverX (SAFETYscan contract panel)

C=CCC1CCC[C@@H](CCC(=O)O)C1=C (stereo partly drawn) [Compound 13]
Emax [1]: 0% | Emax [2]: 25% | Emax ([3]; Agonist mode): 1.13% | Emax ([3]; Antagonist mode): 0% | neurite outgrowth, neurotropic effect (in words) ([4]; HU-MCA-13 5 μM, 5 days): strong neurite outgrowth, neurotropic effect like NGF | maturity of neurites (cytoskeletal-tubulin protein staining) ([4]; HU-MCA-13 compared with NGF-treated ganglia): less mature than in NGF-treated ganglia | Emax [5]: 21.7% | Emax ([6]; Agonist mode): 10.5% | Emax ([6]; Antagonist mode): 0% | Emax ([7]; Agonist mode): 6.34% | Emax ([7]; Antagonist mode): 0% | Emax ([8]; read-out: Maximal Response, Agonist mode): 0% | Emax ([8]; read-out: Maximal Response, Antagonist mode): 14.3% | Emax ([9]; Agonist mode): 0% | Emax ([9]; Antagonist mode): 1.05% | Emax ([10]; Agonist mode): 0.29% | Emax ([10]; Antagonist mode): 0% | mean length of the neurite [11]: 350 micrometer | neurotropic effect versus control medium [11]: four folds neurotropic effect | total (SUM) neurite length [11]: 600 micrometer | Emax ([12]; Agonist mode): 11.7% | Emax ([12]; Antagonist mode): 0% | Emax ([13]; Agonist mode): 1.56% | Emax ([13]; Antagonist mode): 0% | Emax ([14]; Agonist mode): 0% | Emax ([14]; Antagonist mode): 2.28% | Emax [15]: 0%
